“Also recorded” adds a separate entry of the source. Like-named read-outs stand apart in the source and are kept apart here.

The subject of data set [1] is NRK cells. In words: Disruption of normal rat kidney (NRK) cell adhesion, E-cadherin immunofluorescence. It counts as cell-based. The following applies: 1 mg/mL, 48 hours. Here is the method: Within another such assay, the effect of a modulating agent on normal rat kidney (NRK) cells may be evaluated. According to a representative procedure, NRK cells (ATCC #1571-CRL) may be plated at 10-20,000 cells per 35 mm tissue culture flasks containing DMEM with 10% FCS and sub-cultured periodically (Laird et al., J. Cell Biol. 131:1193-1203, 1995). Cells may be harvested and replated in 35 mm tissue culture flasks containing 1 mm coverslips and incubated until 50-65% confluent (24-36 hours). At this time, coverslips may be transferred to a 24-well plate, washed once with fresh DMEM and exposed to modulating agent at a concentration of, for example, 1 mg/mL for 24 hours. Fresh modulating agent may then be added, and the cells left for an additional 24 hours. Cells may be fixed with 100% methanol for 10 minutes and then washed three times with PBS. Coverslips may be blocked for 1 hour in 2% BSA/PBS and incubated for a further 1 hour in the presence of mouse anti-E-cadherin antibody (Transduction Labs, 1:250 dilution). Primary and secondary antibodies may be diluted in 2% BSA/PBS. Following incubation in the primary antibody, coverslips may be washed three times for 5 minutes each in PBS and incubated for 1 hour with donkey anti-mouse antibody conjugated to fluorescein (diluted 1:200). Following further washes in PBS (3×5 min) coverslips can be mounted and viewed by confocal microscopy.
NRK cells (ATCC #1571-CRL) were plated at 10-20,000 cells per 35 mm tissue culture flasks containing DMEM with 10% FCS and sub-cultured periodically (Laird et al., J. Cell Biol. 131:1193-1203, 1995). Cells were harvested and replated in 35 mm tissue culture flasks containing 1 mm coverslips and incubated until 50-65% confluent (24-36 hours). At this time, coverslips were transferred to a 24-well plate, washed once with fresh DMEM and exposed to cyclic peptide solutions (N—Ac-CHAVC-NH2 (SEQ ID NO:10) and N—Ac-CHGVC-NH2 (SEQ ID NO:11)) at a concentration of 1 mg/mL for 24 hours. Fresh peptide solutions were then added and the cells were left for an additional 24 hours. Cells were fixed with 100% methanol for 10 minutes and then washed three times with PBS. Coverslips were blocked for 1 hour in 2% BSA/PBS and incubated for a further 1 hour in the presence of mouse anti-E-cadherin antibody (Transduction Labs, Lexington, Ky.; 1:250 dilution). Primary and secondary antibodies were diluted in 2% BSA/PBS. Following incubation in the primary antibody, coverslips were washed three times for 5 minutes each in PBS and incubated for 1 hour with donkey anti-mouse antibody conjugated to fluorescein (Jackson Immuno Research, West Grove, Pa.; diluted 1:200). Following a further wash in PBS (3×5 min) coverslips were mounted and viewed by confocal microscopy.

Data set [2] in a line: Cytotoxicity, MTT assay, PC-3. As to conditions: human, MTT assay, read-out: PC-3 Cytotox (IC50). It counts as cell-based, human. The method, boiled down:
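Cytotoxicity of N-Ac-CHAVC-NH2 and the control peptide N-Ac-CHGVC-NH2 was assessed by MTT reduction in human endothelial, fibroblast and cancer cell lines at concentrations up to 100 μM. Proliferation was measured separately by ^3H-thymidine incorporation over the same concentration range.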
A general note: Tetrazolium dyes change colour on reduction, which living cells bring about.

For the molecule `CC(=O)N[C@H]1CSSC[C@@H](C(N)=O)NC(=O)[C@H](C(C)C)NC(=O)[C@H](C)NC(=O)[C@H](Cc2c[nH]cn2)NC1=O` [N—Ac—CHAVC—NH2, N-Ac-Cys-His-Ala-Val-Cys-NH2], in data set [1], the “E-cadherin expression of NRK cells (immunofluorescence)” value is given as “E-cadherin expression is greatly reduced; also recorded: expressed greatly reduced levels of E-cadherin” and the “disruption of NRK cell adhesion” value is “NRK cells retract from one another; also recorded: disrupted NRK cell adhesion”. The IC50 – broadly, the concentration that gives 50% inhibition – in data set [2] (PC-3 prostate cancer cell line) is over 100 µM.
For `CC(=O)N[C@H]1CSSC[C@@H](C(N)=O)NC(=O)[C@H](C(C)C)NC(=O)CNC(=O)[C@H](Cc2c[nH]cn2)NC1=O` [N—Ac—CHGVC—NH2, reference compound], in data set [1], the “E-cadherin expression of NRK cells (immunofluorescence)” value is reported as “expressed E-cadherin” and the “disruption of NRK cell adhesion” value is “had no affect on cell adhesion”. Further, the IC50 in data set [2] (PC-3 cells (human prostate cancer cell line)) is over 100 µM.

These data come from US20040106545A1, “Compounds and methods for modulating cell adhesion” (priority 1996, published 2004).
